Results on seven molecules are retold here after ChEMBL document CHEMBL4251697 (ACS Med Chem Lett, 2018).

A short description of data set [1]: Aqueous equilibrium solubility of compound in pH 6.8 phosphate buffer solution incubated overnight by shake flask based high throughput assay. In kind it is physicochemical.
Data set [2] deals with Fibroblast growth factor receptor 4 (Homo sapiens, UniProt P22455).
Data set [3] is described as follows: Thermodynamic solubility of compound in pH 6.8 phosphate buffer solution incubated overnight on shaker by shake flask based HPLC analysis. In kind it is physicochemical. The settings on record: read-out: Therm_solubility.

Converted amounts (≈) assume the structure as drawn.

Sequence of Fibroblast growth factor receptor 4 (P22455 whole entry): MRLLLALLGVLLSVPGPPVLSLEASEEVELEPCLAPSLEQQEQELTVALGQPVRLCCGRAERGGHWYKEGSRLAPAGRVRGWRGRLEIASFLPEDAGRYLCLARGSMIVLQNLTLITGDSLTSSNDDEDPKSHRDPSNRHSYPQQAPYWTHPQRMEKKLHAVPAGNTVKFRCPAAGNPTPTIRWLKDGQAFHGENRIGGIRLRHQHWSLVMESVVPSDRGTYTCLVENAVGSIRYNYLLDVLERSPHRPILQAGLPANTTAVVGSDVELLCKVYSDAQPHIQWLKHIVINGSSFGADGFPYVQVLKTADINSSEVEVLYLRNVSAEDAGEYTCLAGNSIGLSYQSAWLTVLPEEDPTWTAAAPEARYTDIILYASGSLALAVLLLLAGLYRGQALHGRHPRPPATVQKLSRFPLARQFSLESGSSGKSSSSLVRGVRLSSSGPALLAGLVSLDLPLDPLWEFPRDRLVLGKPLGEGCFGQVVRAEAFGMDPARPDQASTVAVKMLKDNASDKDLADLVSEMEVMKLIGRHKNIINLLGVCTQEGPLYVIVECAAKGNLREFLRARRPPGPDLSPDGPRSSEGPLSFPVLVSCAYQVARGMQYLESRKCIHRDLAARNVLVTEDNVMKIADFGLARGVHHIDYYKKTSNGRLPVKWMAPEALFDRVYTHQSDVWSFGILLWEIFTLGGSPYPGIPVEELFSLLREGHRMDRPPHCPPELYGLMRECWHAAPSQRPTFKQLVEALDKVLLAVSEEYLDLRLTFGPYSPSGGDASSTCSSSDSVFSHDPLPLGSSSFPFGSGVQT

In data set [1], `CN(C)CCOc1cc(NC(=O)N2CCCc3cccnc32)ncc1C#N` showed a solubility thermodynamic of 173 µM (≈ 63.4 µg/mL). The molecule `N#Cc1ccc(NC(=O)N2CCCc3ccc(CO)nc32)nc1` came in with an IC50 in data set [2] of over 10 µM. In data set [1], `CN(C)CCOc1cc(NC(=O)N2CCCc3ccc(C=O)nc32)ncc1C#N` came in with a solubility thermodynamic of 300 µM (≈ 118 µg/mL). `CN(C(=O)N1CCCc2ccc(C=O)nc21)c1ccc(C(F)(F)F)cn1` registered an IC50 in data set [2] of over 10 µM. `O=Cc1ccc2c(n1)N(C(=O)Nc1ccc(C(F)(F)F)cn1)CCC2`: the solubility thermodynamic in data set [3] was 4.9 µM (≈ 1.72 µg/mL); in data set [1], under 4 µM. For `O=Cc1ccc2cccc(C(=O)Nc3ccc(C(F)(F)F)cn3)c2n1`, in that order: under 2.9 µM and under 4 µM.

For `COCCNc1cc(NC(=O)N(CCOC)c2cccc(C=O)n2)ncc1C#N`, the solubility thermodynamic in data set [1] is over 1000 µM.
